From US8338482B2, “Modulating notch1 signaling pathway for treating neuroendocrine tumors” (Wisconsin Alumni Research Foundation, priority 2007, dated 2012)

How the values were obtained:
[1] = tested on: H727 human lung carcinoid cancer cells; test: Western blot analysis of pulmonary carcinoid cells; assay type: cell-based
[2] = tested on: H727 human lung carcinoid cancer cells; test: MTT cell proliferation assay, pulmonary carcinoid cells; assay type: cell-based; conditions: VPA 0 to 4 mM, up to 6 days
Source text: Cell Culture BON human GI carcinoid cancer cells, kindly provided by Drs. B. Mark Evers and Courtney M. Townsend, Jr. (University of Texas Medical Branch, Galveston, Tex., USA), and H727 human lung carcinoid cancer cells (American Type Tissue Collection, Manassas, Va., USA) were maintained as previously described (Sippel, R S et al., Raf-1 Activation Suppresses neuroendocrine marker and hormone levels in human gastrointestinal carcinoid cells. Am J Physiol Gastrointest Liver Physiol. 2003 August; 285(2):G245-54, Van Gompel J J et al., ZM336372, A Raf-1 Activator, Suppresses Growth and Neuroendocrine Hormone Levels in Carcinoid Tumor Cells. Mol Cancer Ther. 2005 June; 4(6):910-7)
Cell Proliferation Assay Carcinoid cancer cell proliferation was measured by the MTT (thiazolyl blue tetrazolium bromide; Sigma-Aldrich, St. Louis, Mo., USA) rapid calorimetric assay as previously described (Van Gompel J J et al., ZM336372, A Raf-1 Activator, Suppresses Growth and Neuroendocrine Hormone Levels in Carcinoid Tumor Cells. Mol Cancer Ther. 2005 June; 4(6):910-7). Briefly, cells were seeded in quadruplicate on 24-well plates and incubated for 24 hours to allow cell attachment. The cells were then treated with SBHA (Sigma-Aldrich) in concentrations of 0 to 50 μM and incubated for up to 6 days. The MTT assay was performed by replacing the standard medium with 250 μL of serum-free medium containing MTT (0.5 mg/mL) and incubated at 37° C. for 3 hours. […] The plates were then measured at 540 nm using a spectrophotometer (μQuant; Bio-Tek Instruments, Winooski, Vt., USA). […]
Cell Proliferation Assay Carcinoid tumor cell proliferation was measured by the MTT (methylthiazolyldiphenyl-tetrazolium bromide; Sigma-Aldrich, St. Louis, Mo.) rapid colorimetric assay as previously described (Van Gompel J J et al., ZM336372, A Raf-1 Activator, Suppresses Growth and Neuroendocrine Hormone Levels in Carcinoid Tumor Cells. Mol Cancer Ther 2005; 4:910-917). […] The plates were then measured at 540 nm using a spectrophotometer (μQuant; Bio-Tek Instruments, Winooski, Vt.).

[3] = tested on: BON GI carcinoid cells; test: Flow cytometry cell cycle analysis; assay type: cell-based, human; conditions: VPA
Procedure: Flow Cytometry GI carcinoid cells treated with or without VPA were labeled for 1 hour with 10 μM bromodeoxyuridine (Sigma-Aldrich) and counter-stained with 50 μg/ml propidium iodide and analyzed by two-dimensional flow cytometry (FACSCalibur flow cytometer; BD Biosciences) to detect both fluorescein and propidium iodide as previously described (Hirai, H. et al., Involvement of cell cycle progression in survival signaling through CD40 in the B-lymphocyte line WEHI-231. Cell Death Differ 2004; 11:261-269). Results were analyzed with FlowJo software (Tree Star, Ashland, Oreg.).

[4] = tested on: Notch1; test: CBF1 binding site luciferase reporter assay; assay type: cell-based, human; conditions: GI carcinoid cells, VPA 48 hours
Procedure: Luciferase Reporter Assays GI carcinoid tumor cells were transiently transfected with luciferase constructs as previously described (Kunnimalaiyaan, M. et al., Conservation of the Notch1 signaling pathway in gastrointestinal carcinoid cells A J Physiol Gastrointest Liver Physiol 2005; 289:G636-642). Wild-type (4xwtCBF1Luc; 2 μg) or mutant (4xmutCBF1Luc; 2 μg) CBF1-luciferase reporter plasmids were co-transfected with CMV-β-gal (0.5 μg) (Hsieh J J et al., Truncated Mammalian Notch1 Activates CBF1/RBPJk-Repressed Genes by a Mechanism Resembling That of Epstein-Barr Virus EBNA2. Mol Cell Biol 1996; 16:952-959). In experiments with the γ-secretase inhibitor, N-[N-(3,5-difluorophenacetyl)-L-alanyl]-S-phenylglycine t-butyl ester (DAPT; EMD Biosciences, Darmstadt, Germany), to inhibit Notch1 cleavage and activation, cells were pretreated for 45 minutes with DAPT (50 μM) then treated with 4 mM VPA. […] Luciferase levels were measured using a Monolight 2010 Luminometer (Analytical Luminescence Laboratory, San Diego, Calif.). […]

[5] = tested on: ASCL1 promoter; test: ASCL1 promoter luciferase reporter assay; assay type: cell-based, human; conditions: GI carcinoid cells, VPA 48 hours
[6] = human patients treated for epilepsy; cited from earlier work
[7] = tested on: neuroblastoma (NB) cells; conditions: cited from earlier work

SMILES: CCCC(CCC)C(=O)O [VPA, 2-propylpentanoic acid]
- ASCL1 protein ([1]; VPA): dose-dependent decrease
- full-length Notch1 and NICD ([1]; VPA 0-4 mM, 2 days): increase
- ASCL1 protein ([1]; VPA 4 mM, 2 days): undetectable levels
- protein levels of CgA ([1]; VPA, two days): decreased
- cell growth [2]: Statistically significant growth inhibition
- cells in the S phase [3]: decrease
- percentage of cells in the G1 phase [3]: dose-dependent increase
- increase in CBF1 luciferase activity [4]: 5 fold
- decrease in ASCL1 promoter luciferase activity [5]: ~4 fold
- therapeutic range [6]: 50 to 125 µg/mL
- cell death [7]: increased cell death
- levels of intracellular Notch-1 and Hes-1 [7]: increased levels
